Results: ChEMBL document CHEMBL3991601, “The target landscape of clinical kinase drugs” (Science, 2017)
Where a name gives a salt, the structure may show the parent alone. Activity calls are given as the source filed them. Cut-off read from the data, not from the text of the source, for most assays here: actives have a measured Kd and inactives only a lower limit.

Legend:
[1] = molecular target: MAP kinase-activated protein kinase 2 (Homo sapiens, UniProt P49137)
[2] = molecular target: Protein kinase C beta type (Homo sapiens, UniProt P05771)
Protein kinase C beta type, sequence (P05771 whole entry): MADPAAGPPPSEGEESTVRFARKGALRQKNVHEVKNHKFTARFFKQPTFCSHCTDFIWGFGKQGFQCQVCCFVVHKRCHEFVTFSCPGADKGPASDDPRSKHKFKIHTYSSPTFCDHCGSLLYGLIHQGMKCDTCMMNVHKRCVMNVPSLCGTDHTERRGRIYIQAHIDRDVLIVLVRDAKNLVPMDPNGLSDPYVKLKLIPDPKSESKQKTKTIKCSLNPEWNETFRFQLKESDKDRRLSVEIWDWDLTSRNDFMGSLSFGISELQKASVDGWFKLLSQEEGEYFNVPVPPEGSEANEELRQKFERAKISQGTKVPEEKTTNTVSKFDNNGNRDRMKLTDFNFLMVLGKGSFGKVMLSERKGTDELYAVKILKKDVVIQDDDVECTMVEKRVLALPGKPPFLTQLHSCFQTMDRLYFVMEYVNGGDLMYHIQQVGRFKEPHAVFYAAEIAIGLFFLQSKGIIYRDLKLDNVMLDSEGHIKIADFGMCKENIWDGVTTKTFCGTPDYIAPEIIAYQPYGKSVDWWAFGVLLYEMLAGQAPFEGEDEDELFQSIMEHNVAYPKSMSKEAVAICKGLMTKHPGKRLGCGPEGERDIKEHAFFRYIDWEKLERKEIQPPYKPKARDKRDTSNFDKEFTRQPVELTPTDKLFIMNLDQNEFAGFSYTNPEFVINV

[3] = molecular target: T1, Glycogen phosphorylase, liver form (Homo sapiens, UniProt P06737); assay type: subcellular, K-562, COLO 205, SK-N-BE(2) and MV-4-11, Cell lysate; settings: read-out: Kd apparent
T1 sequence (P06737 whole entry): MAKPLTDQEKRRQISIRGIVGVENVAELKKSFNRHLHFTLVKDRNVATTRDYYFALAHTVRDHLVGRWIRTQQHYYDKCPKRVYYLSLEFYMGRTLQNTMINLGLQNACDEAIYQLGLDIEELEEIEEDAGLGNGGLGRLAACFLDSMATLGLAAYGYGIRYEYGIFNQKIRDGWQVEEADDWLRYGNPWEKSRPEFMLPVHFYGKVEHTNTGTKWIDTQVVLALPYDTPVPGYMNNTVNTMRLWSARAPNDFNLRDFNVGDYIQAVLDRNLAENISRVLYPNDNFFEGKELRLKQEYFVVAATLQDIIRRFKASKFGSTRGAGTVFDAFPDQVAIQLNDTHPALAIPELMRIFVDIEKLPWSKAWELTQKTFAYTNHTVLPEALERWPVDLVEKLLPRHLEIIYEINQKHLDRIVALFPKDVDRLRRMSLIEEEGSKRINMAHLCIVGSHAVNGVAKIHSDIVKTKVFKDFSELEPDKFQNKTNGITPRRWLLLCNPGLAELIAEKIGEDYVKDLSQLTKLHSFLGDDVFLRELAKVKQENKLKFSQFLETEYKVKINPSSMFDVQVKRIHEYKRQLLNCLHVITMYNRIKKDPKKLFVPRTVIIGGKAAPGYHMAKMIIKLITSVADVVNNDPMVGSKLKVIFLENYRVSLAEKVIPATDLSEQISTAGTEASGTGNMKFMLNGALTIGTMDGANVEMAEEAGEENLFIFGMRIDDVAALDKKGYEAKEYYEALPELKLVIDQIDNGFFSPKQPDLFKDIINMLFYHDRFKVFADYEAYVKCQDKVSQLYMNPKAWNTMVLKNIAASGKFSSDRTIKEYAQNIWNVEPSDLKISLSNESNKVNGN

[4] = molecular target: Mitogen-activated protein kinase 11 (Homo sapiens, UniProt Q15759)
Mitogen-activated protein kinase 11, sequence (Q15759 whole entry): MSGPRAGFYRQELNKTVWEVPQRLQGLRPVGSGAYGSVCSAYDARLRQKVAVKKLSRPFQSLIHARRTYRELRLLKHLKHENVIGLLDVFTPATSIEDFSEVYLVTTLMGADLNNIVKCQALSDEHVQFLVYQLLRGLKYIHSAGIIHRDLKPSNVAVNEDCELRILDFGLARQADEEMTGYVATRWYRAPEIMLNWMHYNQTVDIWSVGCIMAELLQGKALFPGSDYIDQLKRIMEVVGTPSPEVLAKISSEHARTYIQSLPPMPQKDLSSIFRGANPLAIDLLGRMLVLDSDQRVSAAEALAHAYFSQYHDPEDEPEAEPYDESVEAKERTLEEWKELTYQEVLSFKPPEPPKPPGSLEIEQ

[5] = molecular target: Mitogen-activated protein kinase 14 (Homo sapiens, UniProt Q16539)
Mitogen-activated protein kinase 14, sequence (Q16539 whole entry): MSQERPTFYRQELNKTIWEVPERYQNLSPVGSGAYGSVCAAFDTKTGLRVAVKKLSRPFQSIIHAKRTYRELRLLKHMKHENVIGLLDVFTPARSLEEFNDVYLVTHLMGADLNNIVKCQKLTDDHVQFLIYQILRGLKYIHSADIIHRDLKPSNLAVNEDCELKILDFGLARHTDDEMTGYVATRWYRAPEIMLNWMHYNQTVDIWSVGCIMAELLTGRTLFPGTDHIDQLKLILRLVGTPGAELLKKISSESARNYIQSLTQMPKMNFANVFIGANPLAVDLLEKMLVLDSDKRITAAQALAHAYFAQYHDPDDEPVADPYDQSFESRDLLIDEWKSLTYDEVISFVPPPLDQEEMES

[6] = molecular target: T2, Serine/threonine-protein kinase LATS1 (Homo sapiens, UniProt O95835)
T2 sequence (O95835 whole entry): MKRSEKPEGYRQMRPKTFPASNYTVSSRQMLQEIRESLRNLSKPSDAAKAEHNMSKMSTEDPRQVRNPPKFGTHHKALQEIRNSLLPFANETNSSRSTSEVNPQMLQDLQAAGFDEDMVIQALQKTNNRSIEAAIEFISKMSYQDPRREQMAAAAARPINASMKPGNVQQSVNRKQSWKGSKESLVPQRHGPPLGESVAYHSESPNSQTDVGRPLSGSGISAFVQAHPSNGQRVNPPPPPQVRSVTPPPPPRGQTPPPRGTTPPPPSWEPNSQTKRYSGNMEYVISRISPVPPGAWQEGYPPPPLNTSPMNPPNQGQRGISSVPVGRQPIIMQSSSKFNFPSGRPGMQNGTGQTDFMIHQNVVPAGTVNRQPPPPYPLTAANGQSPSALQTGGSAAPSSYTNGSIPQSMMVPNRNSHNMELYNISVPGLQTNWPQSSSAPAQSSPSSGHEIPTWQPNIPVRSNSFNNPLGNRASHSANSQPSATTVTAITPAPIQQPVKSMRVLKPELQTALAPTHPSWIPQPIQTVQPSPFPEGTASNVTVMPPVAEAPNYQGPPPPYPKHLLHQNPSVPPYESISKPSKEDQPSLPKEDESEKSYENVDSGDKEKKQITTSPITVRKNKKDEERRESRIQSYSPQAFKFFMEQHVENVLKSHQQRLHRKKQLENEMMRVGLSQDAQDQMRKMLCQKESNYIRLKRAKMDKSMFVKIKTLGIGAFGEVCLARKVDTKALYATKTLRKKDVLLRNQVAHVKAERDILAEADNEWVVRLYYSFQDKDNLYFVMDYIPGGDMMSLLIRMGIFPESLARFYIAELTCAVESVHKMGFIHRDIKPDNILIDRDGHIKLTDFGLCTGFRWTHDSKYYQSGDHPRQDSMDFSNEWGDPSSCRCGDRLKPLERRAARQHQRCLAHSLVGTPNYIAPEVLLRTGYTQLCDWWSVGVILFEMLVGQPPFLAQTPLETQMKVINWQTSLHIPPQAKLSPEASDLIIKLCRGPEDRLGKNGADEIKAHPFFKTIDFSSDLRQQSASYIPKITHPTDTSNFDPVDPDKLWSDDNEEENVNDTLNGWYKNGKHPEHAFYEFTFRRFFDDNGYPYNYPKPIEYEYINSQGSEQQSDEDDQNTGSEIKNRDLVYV

[7] = molecular target: T3, Interleukin-1 receptor-associated kinase 4 (Homo sapiens, UniProt Q9NWZ3)
T3 sequence (Q9NWZ3 whole entry): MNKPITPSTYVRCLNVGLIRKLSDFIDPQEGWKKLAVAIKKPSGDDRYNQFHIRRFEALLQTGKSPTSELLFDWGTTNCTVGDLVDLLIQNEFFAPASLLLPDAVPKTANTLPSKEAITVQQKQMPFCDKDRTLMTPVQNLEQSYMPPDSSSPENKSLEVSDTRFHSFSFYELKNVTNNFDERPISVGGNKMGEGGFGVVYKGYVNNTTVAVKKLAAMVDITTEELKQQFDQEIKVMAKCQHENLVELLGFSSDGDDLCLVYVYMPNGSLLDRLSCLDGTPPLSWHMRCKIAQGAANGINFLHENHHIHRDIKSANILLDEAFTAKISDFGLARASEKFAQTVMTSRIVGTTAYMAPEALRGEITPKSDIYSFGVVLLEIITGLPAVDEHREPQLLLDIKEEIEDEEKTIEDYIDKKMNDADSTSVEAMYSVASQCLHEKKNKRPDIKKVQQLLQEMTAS

Wee1-like protein kinase = Wee1-like protein kinase (Homo sapiens, UniProt P30291)
Wee1-like protein kinase, sequence (P30291 whole entry): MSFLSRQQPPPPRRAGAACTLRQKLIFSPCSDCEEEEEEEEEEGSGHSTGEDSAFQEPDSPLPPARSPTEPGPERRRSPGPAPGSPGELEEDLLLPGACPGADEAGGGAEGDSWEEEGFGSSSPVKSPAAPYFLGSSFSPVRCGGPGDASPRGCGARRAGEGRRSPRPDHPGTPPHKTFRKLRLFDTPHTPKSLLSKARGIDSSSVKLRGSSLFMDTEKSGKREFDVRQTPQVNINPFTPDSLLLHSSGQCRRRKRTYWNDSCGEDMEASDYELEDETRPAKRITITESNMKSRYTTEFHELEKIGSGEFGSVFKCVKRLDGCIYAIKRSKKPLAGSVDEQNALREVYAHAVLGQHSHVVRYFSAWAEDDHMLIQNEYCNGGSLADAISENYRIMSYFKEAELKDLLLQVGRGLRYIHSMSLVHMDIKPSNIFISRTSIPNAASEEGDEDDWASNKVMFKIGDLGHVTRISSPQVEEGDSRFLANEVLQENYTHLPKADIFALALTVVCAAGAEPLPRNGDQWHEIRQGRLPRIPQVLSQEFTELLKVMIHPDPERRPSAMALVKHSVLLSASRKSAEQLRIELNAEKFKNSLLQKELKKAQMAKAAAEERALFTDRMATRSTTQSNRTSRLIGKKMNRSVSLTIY
Note: in the data inactive means no Kd found up to 30 µM.

MAP kinase-activated protein kinase 2, sequence (P49137 whole entry): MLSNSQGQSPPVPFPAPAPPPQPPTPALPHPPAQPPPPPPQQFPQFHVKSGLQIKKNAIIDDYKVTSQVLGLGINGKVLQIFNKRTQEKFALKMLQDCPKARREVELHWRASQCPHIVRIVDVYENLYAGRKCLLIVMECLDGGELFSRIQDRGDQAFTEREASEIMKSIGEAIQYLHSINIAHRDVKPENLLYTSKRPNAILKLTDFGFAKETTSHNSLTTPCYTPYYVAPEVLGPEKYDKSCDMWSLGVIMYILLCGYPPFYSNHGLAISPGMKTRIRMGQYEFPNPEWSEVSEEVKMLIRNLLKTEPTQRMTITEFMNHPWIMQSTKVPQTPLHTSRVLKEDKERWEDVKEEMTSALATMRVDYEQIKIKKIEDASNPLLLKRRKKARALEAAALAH

SMILES | Kd [1] | Kd [2] | Kd [3] | Kd [4] | Kd [5] | Kd [6] | Kd [7] | Kd (Wee1-like protein kinase)
C[C@@H](Oc1cc(C(=O)Nc2ccc(C(=O)N3CCN(C)CC3)cc2)nnc1N)c1c(Cl)ccc(F)c1Cl | > 30 µM (inactive) | > 30 µM (inactive) | > 30 µM (inactive) | > 30 µM (inactive) | > 30 µM (inactive) | > 30 µM (inactive) | > 30 µM (inactive) | > 30 µM (inactive)
C[C@H]1CNCCCN1S(=O)(=O)c1cccc2cncc(F)c12 | > 30 µM (inactive) | > 30 µM (inactive) | > 30 µM (inactive) | > 30 µM (inactive) | > 30 µM (inactive) | > 30 µM (inactive) | > 30 µM (inactive) | > 30 µM (inactive)
C=CC(=O)N1CCC[C@H](n2c(=O)n(-c3ccc(Oc4ccccc4)cc3)c3c(N)ncnc32)C1 | > 30 µM (inactive) | > 30 µM (inactive) | > 30 µM (inactive) | > 30 µM (inactive) | > 30 µM (inactive) | > 30 µM (inactive) | > 30 µM (inactive) | > 30 µM (inactive)
Cc1nc2cc(-c3nn(C(C)C)c4ncnc(N)c34)ccc2o1 | > 30 µM (inactive) | > 30 µM (inactive) | > 30 µM (inactive) | > 30 µM (inactive) | > 30 µM (inactive) | > 30 µM (inactive) | > 30 µM (inactive) | > 30 µM (inactive)
Nc1ncnc2c1c(-c1cccc(OCc3ccccc3)c1)cn2[C@H]1C[C@@H](CN2CCC2)C1 [AEW-541] | > 30 µM (inactive) | > 30 µM (inactive) | > 30 µM (inactive) | > 30 µM (inactive) | > 30 µM (inactive) | 3.88 µM (active) | > 30 µM (inactive) | > 30 µM (inactive)
Cc1csc(-c2nnc(Nc3ccc(Oc4ncccc4-c4ccnc(N)n4)cc3)c3ccccc23)c1 [AMG-900] | 2.69 µM (active) | > 30 µM (inactive) | > 30 µM (inactive) | > 30 µM (inactive) | 0.735 µM (active) | > 30 µM (inactive) | > 30 µM (inactive) | > 30 µM (inactive)
O=C(Nc1c[nH]nc1-c1nc2cc(CN3CCOCC3)ccc2[nH]1)NC1CC1 [AT-9283] | > 30 µM (inactive) | 3.38 µM (active) | > 30 µM (inactive) | > 30 µM (inactive) | > 30 µM (inactive) | 0.045 µM (active) | > 30 µM (inactive) | > 30 µM (inactive)
C=CC(=O)Nc1cc2c(Nc3ccc(F)c(Cl)c3)ncnc2cc1C#CC(C)(C)N1CCN(C)CC1 [AV-412 FREE BASE] | > 30 µM (inactive) | > 30 µM (inactive) | > 30 µM (inactive) | > 30 µM (inactive) | > 30 µM (inactive) | > 30 µM (inactive) | > 30 µM (inactive) | > 30 µM (inactive)
COc1cc([C@@H]2c3cc4c(cc3[C@H](O)[C@H]3COC(=O)[C@@H]23)OCO4)cc(OC)c1OC [AXL-1717] | > 30 µM (inactive) | > 30 µM (inactive) | > 30 µM (inactive) | > 30 µM (inactive) | > 30 µM (inactive) | > 30 µM (inactive) | > 30 µM (inactive) | > 30 µM (inactive)
Cn1cnc2c(F)c(Nc3ccc(Br)cc3F)c(C(=O)NOCCO)cc21 [BINIMETINIB] | > 30 µM (inactive) | > 30 µM (inactive) | > 30 µM (inactive) | > 30 µM (inactive) | > 30 µM (inactive) | > 30 µM (inactive) | > 30 µM (inactive) | > 30 µM (inactive)
CCn1c(C(=O)N(C2CC2)C2CC2)cc2c3c(ncn3C)c(Nc3cc(C)n(C)n3)nc21 [BMS-911543] | > 30 µM (inactive) | > 30 µM (inactive) | > 30 µM (inactive) | > 30 µM (inactive) | > 30 µM (inactive) | > 30 µM (inactive) | > 30 µM (inactive) | > 30 µM (inactive)
COc1cc2ncnc(Oc3cccc(NC(=O)Nc4cc(C(C)(C)C(F)(F)F)on4)c3)c2cc1OC [CEP-32496] | 0.49 µM (active) | > 30 µM (inactive) | > 30 µM (inactive) | 0.872 µM (active) | 0.566 µM (active) | > 30 µM (inactive) | > 30 µM (inactive) | > 30 µM (inactive)
Cc1cc(Nc2ncc(Cl)c(Nc3ccccc3S(=O)(=O)C(C)C)n2)c(OC(C)C)cc1C1CCNCC1 [CERITINIB] | > 30 µM (inactive) | > 30 µM (inactive) | > 30 µM (inactive) | > 30 µM (inactive) | > 30 µM (inactive) | > 30 µM (inactive) | > 30 µM (inactive) | > 30 µM (inactive)
COc1c(OCCCN2CCOCC2)ccc2c1N=C(NC(=O)c1cnc(N)nc1)N1CCN=C21 [COPANLISIB] | > 30 µM (inactive) | > 30 µM (inactive) | > 30 µM (inactive) | > 30 µM (inactive) | > 30 µM (inactive) | > 30 µM (inactive) | > 30 µM (inactive) | > 30 µM (inactive)
COCC(=O)NC/C=C/c1ccc2ncnc(Nc3ccc(Oc4ccc(C)nc4)c(C)c3)c2c1 [CP-724714] | > 30 µM (inactive) | > 30 µM (inactive) | > 30 µM (inactive) | > 30 µM (inactive) | > 30 µM (inactive) | > 30 µM (inactive) | > 30 µM (inactive) | > 30 µM (inactive)
C#Cc1cccc(Nc2ncnc3cc(OC)c(OCCCCCCC(=O)NO)cc23)c1 [CUDC-101] | > 30 µM (inactive) | > 30 µM (inactive) | > 30 µM (inactive) | > 30 µM (inactive) | > 30 µM (inactive) | > 30 µM (inactive) | > 30 µM (inactive) | > 30 µM (inactive)
CCS(=O)(=O)N1CCN(c2ccc(Nc3ncc(C(N)=O)c(NC4CC4)n3)cc2)CC1 [Cerdulatinib Hydrochloride] | > 30 µM (inactive) | > 30 µM (inactive) | > 30 µM (inactive) | > 30 µM (inactive) | > 30 µM (inactive) | 0.261 µM (active) | > 30 µM (inactive) | > 30 µM (inactive)
